Tests used:
[1] = Antacid power, measured according to the pharmacopoeia of Japan; assay type: physicochemical
[2] = tested on: water immersion restraint stress ulcer; assay: Influence on rat water immersion restraint stress ulcer; assay type: in vivo, Wister rats; conditions: oral, 30 minutes before stress, 7 hours stress; for Length of gastric mucosa impairment: control 14.7 mm
Source text: [Influence on Rat Water Immersion Restraint Stress Ulcer]
The powders obtained in Examples 1, 2 and 3, a mixed powder containing the powder obtained in Example 2 and basic zinc carbonate (Zn=58%), the powders obtained in Comparative Examples 1 and 2, lansoprazole as a proton pump inhibitor and sucralfate, which is most highly evaluated as a gastric mucosa protective agent, were used as test specimens. These test specimens were examined for effect on water immersion restraint stress ulcer, which is an acute ulcer model.
Eight Wister rats as a group were preliminarily reared for a few days. The rats were fasted for 24 hours. Then, the rats were placed in a stress cage according to the method of Takagi et al. (Jap, J, Pharacol, 18:9, 1968). The rats were immersed up to xiphoid process parts in a water tank having a temperature of 23° C. and the rats were subjected to stress for 7 hours. Then, their stomachs were taken out under ether anesthesia. About 12 mL of 2% formalin physiological saline solution was injected into each stomach, to fix the stomach. Then, each stomach was cut out along a curvatura ventriculi major side. The length (mm) of mucosa ulcer at a glandular stomach portion was measured.
As to oral administration of the test specimens, 5 mL/kg (rat weight) of a liquid containing a test specimen was administered 30 minutes before the load of the stress. In Control, the same amount of water was administered.

[3] = Measurement of adsorption amount of naphthol yellow S; assay type: physicochemical; conditions: 1.0 g powder in 500 mL NYS aqueous solution 100 ppm, 30° C., 1 hour
Method: [Measurement of Adsorption Amount of Naphthol Yellow S]
1.0 g of a powder sample was added to 500 mL of an aqueous solution of naphthol yellow S (NYS) (concentration 100 ppm). The mixture was stirred at 30° C. for 1 hour and then filtered to obtain a filtrate. The concentration of NYS in the filtrate was measured with a spectrophotometer and the adsorption amount of the sample was obtained.

Antacid power [1] | NYS adsorption amount [3] | Compound | Inhibition rate ([2]; dosage 40 mg/kg) | Length of gastric mucosa impairment ([2]; dosage 40 mg/kg) | Inhibition rate ([2]; dosage 500 mg/kg) | Length of gastric mucosa impairment ([2]; dosage 500 mg/kg)
0 mL/g | 0 mg/g | Cc1c(OCC(F)(F)F)ccnc1C[S+]([O-])c1nc2ccccc2[nH]1 (centres unmarked) [Lansoprazole, lansoprazole] | 78% | 3.2 mm | – | –
168 mL/g | 0.60 mg/g | sucralfate | – | – | 71% | 4.3 mm
